Measurements published in US6730665B1, “Treatment of bone cancer” (Mayo Foundation for Medical Education and Research, priority 1999, dated 2004).
“Also recorded” adds a separate entry of the source.

Experiments:
[1] = Serum cholesterol in 2ME treated rats; format: in vivo, rat; conditions: 100 mg/kg/day oral gavage 13 days
[2] = test system: MG63 human osteosarcoma cells; assay: Cell survival, viable cell count with trypan blue; format: cell-based; conditions: for cell death: 72 hrs
Protocol: (§1) MG63 and TE85 human osteosarcoma cells, and ROS 17/2.8 rat osteosarcoma cells were grown in DMEM/F12 phenol-red free medium containing 10% charcoal-stripped fetal bovine serum (FBS) and supplemented with 100 units/ml penicillin, 100 μg/ml streptomycin. Cell were incubated at 37° C. under 5% CO2 in air. Cells were plated at 5×10^4 cells per well into 24 well plates containing 1 ml of medium per well. After allowing the cells to attach overnight, media in the wells were replaced with fresh 1 ml medium. Human fetal osteoblasts (hFOB) cells and hFOB cells overexpressing estrogen receptor-alpha (hFOB-ERα) and estrogen receptor-beta (hFOB-ERβ) were grown in DMEM/F12 medium containing FBS, penicillin, streptomycin and Geneticin (300 μg/mL). The laboratory of Dr. B. L. Riggs at Mayo Clinic provided primary human osteoblast (HOB) cells. HOB cells were basically established from cancellous bone obtained as waste from orthopedic procedures and cultured as explants to generate the osteoblast-like monolayers as described by Borke et al., J. Clin. Endocrinol. Metab., 1988, 67:1299-1304. Human FOB cells and hFOB cells stably transfected with estrogen receptors (ERs) were maintained at 34° C., while all other cells were incubated at 37° C. under 5% CO2 in air.
(§2) Estrogen metabolites were diluted 1000 fold to give the final required concentrations in each well, and maintained for 72 hrs. The metabolites 2ME, 2OHE, and E2 were purchased from Sigma Chemical Company (St. Louis, Mo.). Stock solutions for each metabolite were made in 95% ethanol. Cell growth was measured by taking the viable cell count. At the end of metabolite treatment, cells were harvested, stained with trypan blue, and counted under a light microscope.
MG63 cells were treated with 0, 2, and 10 μM concentrations of 2ME in the presence or absence of 100 nM ICI for 72 hours. The cells were harvested and the viable cell counts were taken after staining with trypan blue.

[3] = test system: hFOB cells overexpressing estrogen receptor-alpha (hFOB-ERα); assay: Cell survival, viable cell count with trypan blue; format: cell-based, human; conditions: 2 μM, 72 h
Protocol: as §1, with “Human FOB cells and hFOB cells stably transfected with estrogen receptors (ERs) were maintained at 34° C., while all other cells were incubated at 37° C. under 5% CO2 in air.” left out
(§3) Estrogen metabolites were diluted 1000 fold to give the final required concentrations in each well, and maintained for 72 hrs. […] Cell growth was measured by taking the viable cell count. At the end of metabolite treatment, cells were harvested, stained with trypan blue, and counted under a light microscope.

[4] = test system: hFOB cells overexpressing estrogen receptor-beta (hFOB-ERβ); assay: Cell survival, viable cell count with trypan blue; format: cell-based, human; conditions: 2 μM, 72 h
Protocol: as §1, with “Human FOB cells and hFOB cells stably transfected with estrogen receptors (ERs) were maintained at 34° C., while all other cells were incubated at 37° C. under 5% CO2 in air.” left out
as §3

[5] = test system: osteosarcoma cells and immortalized cell lines; assay: Cell survival, summary statement; format: cell-based
Protocol: as §1, §2

MG63 cells [6] = assay: Apoptotic gene mRNA levels by RNase protection assay; format: cell-based, human; conditions: 10 μM
Protocol: The changes in expression of the genes that are known to antagonize or promote apoptosis were analyzed by this method. MG63 cells in triplicate cultures were treated with 10 μM 2ME. Cells were harvested at the end of 12, 24, 48 and 72 h of treatment and used for RNA isolation. Total RNA isolated from cells was analyzed by RNase protection assay using apoptosis template set for multiprobes (Pharmingen; San Diego, Calif.). Quantitation of protected RNA fragments was performed by Phosphor Imager analyses and normalized to L32 or GAP levels. The mRNA for the proapoptotic gene bak and bax were increased by 2ME treatment in MG63 cells (FIG. 7). The increase was significant within 12 h of treatment and reached a maximum (2 fold for bak; 2.5 fold for bax) at 48 h, at which time cell death by apoptosis was detected by in situ TUNEL assay.

MG63 cells [7] = assay: Cytokine and growth factor mRNA levels by RNase protection assay; format: cell-based, human; conditions: 10 μM
Protocol: Changes in steady state mRNA levels for cytokines implicated in the regulation of bone formation and resorption were measured using RNase Protection assays. For RNA isolation and RNase protection assays, MG63 cells were plated at 10^6 cells per T75 culture flask a day prior to metabolite treatment. The next day, the medium was removed and replaced with fresh medium containing 10 μM concentrations of 2ME and incubated for 12, 24, 48, and 72 hours. Cells were harvested and cell pellets were used for RNA isolation. Total cellular RNA was extracted and isolated using a modified organic solvent method and the RNA yields were determined spectrohotometrically at 260 nm. Total cellular RNA was analyzed by RNase protection assays using antisense RNA probes for transforming growth factor-beta (TGF-β), tumor necrosis factor (TNF) α and β, interleukin (IL) 1α, 1β, 1Ra, 6, 10, 12 (p35 and p40), interferon (IFN) β and γ, and lymphotoxin (LT) β. Quantitation of protected RNA fragments was performed by PhosphorImager analyses and normalized to ribosomal structural protein L32 or glyceraldehyde 3-phosphate dehydrogenase levels. Results are presented in FIG. 8 and Table 4, and are representative of 3 independent treatments.

estrogen receptors = conditions: cited from earlier work

COc1cc2c(cc1O)CC[C@@H]1[C@@H]2CC[C@]2(C)[C@@H](O)CC[C@@H]12 [2ME, 2-methoxyestradiol]
effect on serum cholesterol (in words) [1]: decreased; also recorded: highly significant decreases | cell survival rate ([2]; 2 μM, 72 h): 21% | reduction of MG63 cell survival ([2]; 2 μM, 72 hours): approximately 80% | cell death ([2]; 20 μM): about 95% | cell death ([2]; 50 μM): ~100% | cell numbers reduced to [3]: 24% | cell numbers reduced to [4]: 24% | reduction of cell survival ([5]; 2 μM, continuous treatment, 72 hours): 85% | reduction of cell survival ([5]; 20 μM): 95% | maximum increase of bak mRNA (MG63 cells [6]; 48 h): 2 fold | maximum increase of bax mRNA (MG63 cells [6]; 48 h): 2.5 fold | mRNA levels for bak and bax (in words) (MG63 cells [6]; 72 h): returned to basal level | increase of TGF-β1 mRNA level (MG63 cells [7]): 177% | increase of TGF-β2 mRNA level (MG63 cells [7]): 289% | increase of TGF-β3 mRNA level (MG63 cells [7]): 178% | IFN-β mRNA (MG63 cells [7]; 12-72 hours): Increased | IFN-γ mRNA (MG63 cells [7]; 12-72 hours): Not detected | IL-1 Ra mRNA (MG63 cells [7]; 12-72 hours): Not detected | IL-1α mRNA (MG63 cells [7]; 12-72 hours): Not detected | IL-1β mRNA (MG63 cells [7]; 12-72 hours): Not detected | IL-6 mRNA (MG63 cells [7]; 12-72 hours): Not detected | IL-10 mRNA (MG63 cells [7]; 12-72 hours): Not detected | IL-12 p35 mRNA (MG63 cells [7]; 12-72 hours): Not detected | IL-12 p40 mRNA (MG63 cells [7]; 12-72 hours): Not detected | LT-β mRNA (MG63 cells [7]; 12-72 hours): Not detected | TGF-β1 mRNA (MG63 cells [7]; 12-72 hours): Increased | TGF-β2 mRNA (MG63 cells [7]; 12-72 hours): Increased | TGF-β3 mRNA (MG63 cells [7]; 12-72 hours): Increased | TNF-α mRNA (MG63 cells [7]; 12-72 hours): Not detected | TNF-β mRNA (MG63 cells [7]; 12-72 hours): Not detected | maximum increase of interferon-β mRNA level (MG63 cells [7]; by 48 h): 2100% | increase of interferon-β mRNA level (MG63 cells [7]; within 12 h): 500% | affinity for estrogen receptors (in words) (estrogen receptors): negligible affinity
